Results as given in patent US20230092679A1, “MCL-1 INHIBITOR ANTIBODY-DRUG CONJUGATES AND METHODS OF USE” (NOVARTIS AG, priority 2019, published 2023).

Assays:
KMS21 BM cells [1] = experiment: CTG cell viability assay, KMS21 BM cells; assay type: cell-based; conditions: FIG. 18
Method: Cell viability may also be measured, e.g., by quantifying ATP, an indicator of metabolically active cells. In some embodiments, in vitro potency and/or cell viability of prepared ADCs or Mcl-1 inhibitor compounds may be assessed using a CellTiter-Glo® (CTG) cell viability assay, as described in the examples provided herein. In this assay, in some embodiments, the single reagent (CellTiter-Glo® Reagent) is added directly to cells cultured in serum-supplemented medium. The addition of reagent results in cell lysis and generation of a luminescent signal proportional to the amount of ATP present. The amount of ATP is directly proportional to the number of cells present in culture

KMS21 BM cells [2] = experiment: Cell viability CTG assay, anti-CD46-Mcl-1 ADC (Example 14); assay type: cell-based; conditions: 72h
Method: KMS21 BM cells were cultivated in RPM11640 supplemented with 10% heat inactivated fetal bovine serum, penicillin (100 IU/ml), streptomycin (100 μg/ml) and L-glutamine (2 mM), at 37° C. in a humidified atmosphere containing 5% CO2. KMS21 BM cells were seeded in 96 microwell plates and exposed to the ADCs for 72h (3.16 fold serially diluted; 9 concentrations each, triplicates). […] All the conditions were tested in triplicates. Luminescence was quantified on a multipurpose plate reader. IC50s (Table 33) were calculated using standard four-parametric curve fitting. […] Each experiment was performed at least twice, with results being reproducible.

## COc1ccccc1-c1nccc(COc2ccccc2C[C@@H](Oc2ncnc3sc(-c4ccc(F)cc4)c(-c4ccc(OCCN5CCN(C)CC5)c(Cl)c4C)c23)C(=O)O)n1 [C1, (2R)-2-[(5Sa)-5-[3-chloro-2-methyl-4-[2-(4-methylpiperazin-1-yl)ethoxy]phenyl]-6-(4-fluorophenyl)thieno[2,3-d]pyrimidin-4-yl]oxy-3-[2-[[2-(2-methoxyphenyl)pyrimidin-4-yl]methoxy]phenyl]propanoic acid]
KMS21 BM cells [1]
  viability of KMS21 BM cells: dose dependent decrease in the viability
KMS21 BM cells [2]; FIG. 18
  viability of KMS21 BM cells in CTG assay, in words: dose dependent decrease in the viability
KMS21 BM cells [2]; KMS-21BM, KMS21BM cell line, CTG
  IC50: 2.31 nM
